We go through 36 compounds from US8987250B2 (Gilead Sciences, Inc., priority 2012, dated 2015).

The structures appear in SMILES notation.

The term EC50 denotes the concentration at which the effect is half-maximal.

The test system of the assay is HIV-IIIb. Description: Test A: Antiviral Assay in MT4 Cells. Format: cell-based. The following applies: Human immunodeficiency virus 1, IIIB, MT4, 120 h, Table 1; MT-4 cells infected with HIV-IIIb, 5 days of incubation, CellTiter-Glo; read-out: EC50. How it is done:
The antiviral properties of a compound of the invention may be determined using Test A described below.
Test A: Antiviral Assay in MT4 Cells
For the antiviral assay utilizing MT-4 cells, 0.4 μL of […] test concentration of 3-fold serially diluted compound in DMSO was added to 40 μL of cell growth medium (RPMI 1640, 10% FBS, 1% penicilline/Streptomycine, 1% L-Glutamine, 1% HEPES) in each well of 384-well assay plates (10 concentrations) in quadruplicate.
One mL aliquots of 2×10e6 MT-4 cells were pre-infected for 1 and 3 hours respectively, @ 37° C. with 25 uL (MT4) or of either cell growth medium (mock-infected) or a fresh 1:250 dilution of an HIV-IIIb concentrated ABI stock (0.004m.o.i. for MT4 cells). Infected and uninfected cells were diluted in cell growth medium and 35 uL of 2000 (for MT4) cells was added to each well of the assay plates.
Assay plates were then incubated in a 37° C. incubator. After 5 days of incubation, […] of 2× concentrated CellTiter-Glo™ Reagent (catalog #G7573, Promega Biosciences, Inc., Madison, Wis.) was added to each well of the assay plate. Cell lysis was carried out by incubating at room temperature for 2-3 min and then chemiluminescence was read using the Envision reader (PerkinElmer). […]
In general terms: Cellular ATP, detected with luciferase, serves as a proxy for viable cell number.
Regarding `Cc1cc2nc(-c3cnc4cnn(C)c4c3)sc2c(-c2ccc(Cl)cc2)c1[C@H](OC(C)(C)C)C(=O)O` [Compound 111, (S)-2-tert-butoxy-2-(7-(4-chlorophenyl)-5-methyl-2-(1-methyl-1H-pyrazolo[4,3-b]pyridin-6-yl)benzo[d]thiazol-6-yl)acetic acid], the EC50 came out at 8 nM.
Consider `Cc1cc2nc(-c3cnc4[nH]cc(C)c4c3)sc2c(-c2ccc(Cl)cc2)c1[C@H](OC(C)(C)C)C(=O)O` [Compound 112], for which the EC50 was found to be 28 nM.
On to `Cc1cc2nc(-c3ccc4c(cnn4C)c3)sc2c(-c2ccc(Cl)cc2)c1[C@H](OC(C)(C)C)C(=O)O` [Compound 113b, (S)-2-tert-butoxy-2-(7-(4-chlorophenyl)-5-methyl-2-(1-methyl-1H-indazol-5-yl)benzo[d]thiazol-6-yl)acetic acid], for which the EC50 came out at 18 nM.
Take `Cc1cc2nc(-c3cncc(-c4ccc5c(cnn5C)c4)c3)sc2c(-c2ccc(Cl)cc2)c1[C@H](OC(C)(C)C)C(=O)O` [Compound 114, (S)-2-tert-butoxy-2-(7-(4-chlorophenyl)-5-methyl-2-(5-(1-methyl-1H-indazol-5-yl)pyridin-3-yl)benzo[d]thiazol-6-yl)acetic acid]: the EC50 worked out at 13 nM.
The same measure for `Cc1cc2nc(-c3ccnc(-c4ccc5[nH]ncc5c4)c3)sc2c(-c2ccc(Cl)cc2)c1[C@H](OC(C)(C)C)C(=O)O` [Compound 115, (S)-2-(2-(2-(1H-indazol-5-yl)pyridin-4-yl)-7-(4-chlorophenyl)-5-methylbenzo[d]thiazol-6-yl)-2-tert-butoxyacetic acid]: 13 nM.
The same measure for `Cc1cc2nc(-c3cnc4c(cnn4C)c3)sc2c(-c2ccc(Cl)cc2)c1[C@H](OC(C)(C)C)C(=O)O` [Compound 116, (S)-2-tert-butoxy-2-(7-(4-chlorophenyl)-5-methyl-2-(1-methyl-1H-pyrazolo[3,4-b]pyridin-5-yl)benzo[d]thiazol-6-yl)acetic acid]: 19 nM; for `Cc1cc2nc(-n3cccc(-c4ccc5c(cnn5C)c4)c3=O)sc2c(-c2ccc(Cl)cc2)c1[C@H](OC(C)(C)C)C(=O)O` [Compound 117, (S)-2-tert-butoxy-2-(7-(4-chlorophenyl)-5-methyl-2-(3-(1-methyl-1H-indazol-5-yl)-2-oxopyridin-1(2H)-yl)benzo[d]thiazol-6-yl)acetic acid]: 14 nM.
Turning to `Cc1cc2nc(-n3cc(-c4ccc5c(cnn5C)c4)ccc3=O)sc2c(-c2ccc(Cl)cc2)c1[C@H](OC(C)(C)C)C(=O)O` [Compound 118, (S)-2-tert-butoxy-2-(7-(4-chlorophenyl)-5-methyl-2-(5-(1-methyl-1H-indazol-5-yl)-2-oxopyridin-1(2H)-yl)benzo[d]thiazol-6-yl)acetic acid], the EC50 is 101 nM.
For the compound `Cc1cc2nc(-c3cccc(-c4ccc5c(cnn5C)c4)c3)sc2c(-c2ccc3c(c2)OC(C)O3)c1[C@H](OC(C)(C)C)C(=O)O` (stereo partly drawn) [Compound 119, (2S)-2-tert-butoxy-2-(5-methyl-2-(3-(1-methyl-1H-indazol-5-yl)phenyl)-7-(2-methylbenzo[d][1,3]dioxol-5-yl)benzo[d]thiazol-6-yl)acetic acid], the EC50 was 237 nM.
With `Cc1cc2nc(-c3cccc(-c4cnn(C)c4C)c3)sc2c(-c2ccc(Cl)cc2)c1[C@H](OC(C)(C)C)C(=O)O` [Compound 120, (S)-2-tert-butoxy-2-(7-(4-chlorophenyl)-2-(3-(1,5-dimethyl-1H-pyrazol-4-yl)phenyl)-5-methylbenzo[d]thiazol-6-yl)acetic acid], the EC50 amounted to 23 nM.
For the compound `Cc1cc2nc(-c3cnc4c(c3)c(C)cn4C)sc2c(-c2ccc(Cl)cc2)c1[C@H](OC(C)(C)C)C(=O)O` [Compound 121, (S)-2-tert-butoxy-2-(7-(4-chlorophenyl)-2-(1,3-dimethyl-1H-pyrrolo[2,3-b]pyridin-5-yl)-5-methylbenzo[d]thiazol-6-yl)acetic acid], the EC50 amounted to 27 nM.
As for `Cc1cc2nc(-c3ccnc(-c4cccc(-c5nnn[nH]5)c4)c3)sc2c(-c2ccc(Cl)cc2)c1[C@H](OC(C)(C)C)C(=O)O` [Compound 122, (S)-2-(2-(2-(3-(1H-tetrazol-5-yl)phenyl)pyridin-4-yl)-7-(4-chlorophenyl)-5-methylbenzo[d]thiazol-6-yl)-2-tert-butoxyacetic acid], the EC50 came out at 5520 nM.
Turning to `Cc1cc2nc(N3CCCN(c4ccc5c(cnn5C)c4)C3=O)sc2c(-c2ccc(Cl)cc2)c1[C@H](OC(C)(C)C)C(=O)O` [Compound 123, (S)-2-tert-butoxy-2-(7-(4-chlorophenyl)-5-methyl-2-(3-(1-methyl-1H-indazol-5-yl)-2-oxotetrahydropyrimidin-1(2H)-yl)benzo[d]thiazol-6-yl)acetic acid], the EC50 was found to be 18 nM.
Next, `Cc1cc2nc(N3CCN(c4ccc5c(cnn5C)c4)C3=O)sc2c(-c2ccc(Cl)cc2)c1[C@H](OC(C)(C)C)C(=O)O` [Compound 124, (S)-2-tert-butoxy-2-(7-(4-chlorophenyl)-5-methyl-2-(3-(1-methyl-1H-indazol-5-yl)-2-oxoimidazolidin-1-yl)benzo[d]thiazol-6-yl)acetic acid]: 21 nM.
The same measure for `Cc1cc2nc(N3CC(c4ccc5c(cnn5C)c4)CC3=O)sc2c(-c2ccc(Cl)cc2)c1[C@H](OC(C)(C)C)C(=O)O` (stereo partly drawn) [Compound 125, (2S)-2-tert-butoxy-2-(7-(4-chlorophenyl)-5-methyl-2-(4-(1-methyl-1H-indazol-5-yl)-2-oxopyrrolidin-1-yl)benzo[d]thiazol-6-yl)acetic acid]: 205 nM; for `Cc1cc2nc(N3CCC(c4ccccc4)C3)sc2c(-c2ccc(Cl)cc2)c1[C@H](OC(C)(C)C)C(=O)O` (stereo partly drawn) [Compound 126]: 722 nM.
The same measure for `Cc1cc2nc(-c3ccnc(-c4cnc5cnn(C)c5c4)c3)sc2c(-c2ccc(Cl)cc2)c1[C@H](OC(C)(C)C)C(=O)O` [Compound 129]: 48 nM.
For `Cc1cc2nc(-c3cc(-c4ccc5c(cnn5C)c4)ncn3)sc2c(-c2ccc(Cl)cc2)c1[C@H](OC(C)(C)C)C(=O)O` [Compound 130], the EC50 amounted to 100 nM.
Take `Cc1cc2nc(-c3cncc(-c4ccc5c(cnn5C)c4)n3)sc2c(-c2ccc(Cl)cc2)c1[C@H](OC(C)(C)C)C(=O)O` [Compound 131]: the EC50 was determined as 8 nM.
For `Cc1cc2nc(-c3cnc4cn(C)nc4c3)sc2c(-c2ccc(Cl)cc2)c1[C@H](OC(C)(C)C)C(=O)O` [Compound 132], the EC50 stood at 12 nM.
Next, `Cc1cc2nc(-c3ccc4c(c3)c(N)nn4C)sc2c(-c2ccc(Cl)cc2)c1[C@H](OC(C)(C)C)C(=O)O` [Compound 133]: 18 nM; `Cc1cc2nc(-c3ccnc(-c4cnc(O)nc4)c3)sc2c(-c2ccc(Cl)cc2)c1[C@H](OC(C)(C)C)C(=O)O` [Compound 134]: 3230 nM; `Cc1cc2nc(-c3ccnc(-c4cnc(N5CCOCC5)nc4)c3)sc2c(-c2ccc(Cl)cc2)c1[C@H](OC(C)(C)C)C(=O)O` [Compound 135]: 17 nM.
Consider `Cc1cc2nc(-c3ccnc(-c4cnc(N5CCN(C)CC5)nc4)c3)sc2c(-c2ccc(Cl)cc2)c1[C@H](OC(C)(C)C)C(=O)O` [Compound 136], for which the EC50 worked out at 12 nM.
Next, `Cc1cc2nc(-c3cccc(-c4cnc5cnn(C)c5c4)c3)sc2c(-c2ccc(Cl)cc2)c1[C@H](OC(C)(C)C)C(=O)O` [Compound 137]: 21 nM.
On to `Cc1cc2nc(-c3ccnc(-c4cnc(C5CCC5)nc4)c3)sc2c(-c2ccc(Cl)cc2)c1[C@H](OC(C)(C)C)C(=O)O` [Compound 138], for which the EC50 came to 65 nM.
Turning to `Cc1cc2nc(-c3ccnc(-c4ccc5c(c4)c(C4CC4)nn5C)c3)sc2c(-c2ccc(Cl)cc2)c1[C@H](OC(C)(C)C)C(=O)O` [Compound 139], the EC50 worked out at 61 nM.
Regarding `Cc1cc2nc(-c3ccnc(-c4ccc(N5CCN(C)CC5)nc4)c3)sc2c(-c2ccc(Cl)cc2)c1[C@H](OC(C)(C)C)C(=O)O` [Compound 140], the concentration giving a half-maximal response (EC50) turned out to be 5 nM.
The same measure for `Cc1cc2nc(-c3cccc(-c4cnc(N(C)C)nc4)c3)sc2c(-c2ccc(Cl)cc2)c1[C@H](OC(C)(C)C)C(=O)O` [Compound 142]: 48 nM.
In the case of `COc1ncc(-c2cccc(-c3nc4cc(C)c([C@H](OC(C)(C)C)C(=O)O)c(-c5ccc(Cl)cc5)c4s3)c2)cn1` [Compound 143], the EC50 came out at 24 nM.
In the case of `Cc1cc2nc(-c3cccc(-c4cnc(O)nc4)c3)sc2c(-c2ccc(Cl)cc2)c1[C@H](OC(C)(C)C)C(=O)O` [Compound 144], the EC50 was determined as 2610 nM.
Regarding `Cc1cc2nc(-c3cccc(-c4cn(C)nc4C)c3)sc2c(-c2ccc(Cl)cc2)c1[C@H](OC(C)(C)C)C(=O)O` [Compound 145], the EC50 is 34 nM.
As for `Cc1cc2nc(-c3cccc(-c4cnn(C5CCCC5)c4)c3)sc2c(-c2ccc(Cl)cc2)c1[C@H](OC(C)(C)C)C(=O)O` [Compound 146], the EC50 stood at 92 nM.
The same measure for `Cc1cc2nc(-c3cccc(-c4cnn(CC(C)C)c4)c3)sc2c(-c2ccc(Cl)cc2)c1[C@H](OC(C)(C)C)C(=O)O` [Compound 147]: 59 nM; for `Cc1cc2nc(-c3ccnc(-c4cncc(C(=O)O)c4)c3)sc2c(-c2ccc(Cl)cc2)c1[C@H](OC(C)(C)C)C(=O)O` [Compound 148]: 2700 nM.
Regarding `Cc1cc2nc(-c3ccnc(-c4cncc(C(N)=O)c4)c3)sc2c(-c2ccc(Cl)cc2)c1[C@H](OC(C)(C)C)C(=O)O` [Compound 149], the EC50 is 153 nM.
